Data published in patent publication US9056108B2, “Method of treating atrial fibrillation” (Gilead Sciences, Inc., priority 2009, dated 2015).

Assays:
[1] = test system: female rabbit isolated heart; assay: Monophasic action potential duration (MAPD90) in female rabbit isolated heart; conditions: ranolazine 0.1-100 μM
Experimental: Each rabbit was sedated using intramuscular injections of 6 mg/kg xylazine and 40 mg/kg ketamine and then anesthetized using a “cocktail” of ketamine (15 mg/kg)+xylazine (4 mg/kg) in 1.5 ml saline. The ketamine/xylazine cocktail was administered as an i.v. bolus via the marginal ear vein. After anesthesia was confirmed, the thorax was opened and the heart was quickly excised. The heart was placed in a modified Krebs-Henseleit (K-H) physiological saline solution at room temperature. The K-H solution contained (in mmol/L): NaCl 118, KCl 2.8, KH2PO4 1.2, CaCl2 2.5, MgSO4 0.5, pyruvate 2.0, glucose 5.5, Na2EDTA 0.57 and NaHCO3 25. […] CPP was measured (with a Biopac MP 150 pressure transducer, Goleta, Calif.) from a side port of the aortic catheter. […]
Monophasic action potential (MAP) and ECG electrodes from Harvard Apparatus Inc. (Holliston, Mass.) were used to record heart rate (in beats per minute, or bpm), left ventricular MAPs and a bipolar ECG MAP electrodes were pressure contact Ag—AgCl cells attached to a circular holder with springs to keep the electrodes in contact with the LV epicardial surface. […] To ensure that each response to drug had achieved a steady state before a drug concentration was changed, the MAP duration (from onset of depolarization to 100% repolarization) was measured using an on-screen caliper throughout each drug infusion period. […]

hNav1.5 = target: T1, hNav1.5 (Homo sapiens, UniProt Q14524); assay: Tefluthrin-induced late sodium current in HEK293 cells expressing hNav1.5; type: cell-based; conditions: HEK293 cells expressing hNav1.5, tefluthrin 10 μM; read-out: Concentration causing a half-maximal inhibition of late Na+
T1 construct: expressed in transfected cells; host or cells: HEK293
T1 sequence (Q14524 whole entry): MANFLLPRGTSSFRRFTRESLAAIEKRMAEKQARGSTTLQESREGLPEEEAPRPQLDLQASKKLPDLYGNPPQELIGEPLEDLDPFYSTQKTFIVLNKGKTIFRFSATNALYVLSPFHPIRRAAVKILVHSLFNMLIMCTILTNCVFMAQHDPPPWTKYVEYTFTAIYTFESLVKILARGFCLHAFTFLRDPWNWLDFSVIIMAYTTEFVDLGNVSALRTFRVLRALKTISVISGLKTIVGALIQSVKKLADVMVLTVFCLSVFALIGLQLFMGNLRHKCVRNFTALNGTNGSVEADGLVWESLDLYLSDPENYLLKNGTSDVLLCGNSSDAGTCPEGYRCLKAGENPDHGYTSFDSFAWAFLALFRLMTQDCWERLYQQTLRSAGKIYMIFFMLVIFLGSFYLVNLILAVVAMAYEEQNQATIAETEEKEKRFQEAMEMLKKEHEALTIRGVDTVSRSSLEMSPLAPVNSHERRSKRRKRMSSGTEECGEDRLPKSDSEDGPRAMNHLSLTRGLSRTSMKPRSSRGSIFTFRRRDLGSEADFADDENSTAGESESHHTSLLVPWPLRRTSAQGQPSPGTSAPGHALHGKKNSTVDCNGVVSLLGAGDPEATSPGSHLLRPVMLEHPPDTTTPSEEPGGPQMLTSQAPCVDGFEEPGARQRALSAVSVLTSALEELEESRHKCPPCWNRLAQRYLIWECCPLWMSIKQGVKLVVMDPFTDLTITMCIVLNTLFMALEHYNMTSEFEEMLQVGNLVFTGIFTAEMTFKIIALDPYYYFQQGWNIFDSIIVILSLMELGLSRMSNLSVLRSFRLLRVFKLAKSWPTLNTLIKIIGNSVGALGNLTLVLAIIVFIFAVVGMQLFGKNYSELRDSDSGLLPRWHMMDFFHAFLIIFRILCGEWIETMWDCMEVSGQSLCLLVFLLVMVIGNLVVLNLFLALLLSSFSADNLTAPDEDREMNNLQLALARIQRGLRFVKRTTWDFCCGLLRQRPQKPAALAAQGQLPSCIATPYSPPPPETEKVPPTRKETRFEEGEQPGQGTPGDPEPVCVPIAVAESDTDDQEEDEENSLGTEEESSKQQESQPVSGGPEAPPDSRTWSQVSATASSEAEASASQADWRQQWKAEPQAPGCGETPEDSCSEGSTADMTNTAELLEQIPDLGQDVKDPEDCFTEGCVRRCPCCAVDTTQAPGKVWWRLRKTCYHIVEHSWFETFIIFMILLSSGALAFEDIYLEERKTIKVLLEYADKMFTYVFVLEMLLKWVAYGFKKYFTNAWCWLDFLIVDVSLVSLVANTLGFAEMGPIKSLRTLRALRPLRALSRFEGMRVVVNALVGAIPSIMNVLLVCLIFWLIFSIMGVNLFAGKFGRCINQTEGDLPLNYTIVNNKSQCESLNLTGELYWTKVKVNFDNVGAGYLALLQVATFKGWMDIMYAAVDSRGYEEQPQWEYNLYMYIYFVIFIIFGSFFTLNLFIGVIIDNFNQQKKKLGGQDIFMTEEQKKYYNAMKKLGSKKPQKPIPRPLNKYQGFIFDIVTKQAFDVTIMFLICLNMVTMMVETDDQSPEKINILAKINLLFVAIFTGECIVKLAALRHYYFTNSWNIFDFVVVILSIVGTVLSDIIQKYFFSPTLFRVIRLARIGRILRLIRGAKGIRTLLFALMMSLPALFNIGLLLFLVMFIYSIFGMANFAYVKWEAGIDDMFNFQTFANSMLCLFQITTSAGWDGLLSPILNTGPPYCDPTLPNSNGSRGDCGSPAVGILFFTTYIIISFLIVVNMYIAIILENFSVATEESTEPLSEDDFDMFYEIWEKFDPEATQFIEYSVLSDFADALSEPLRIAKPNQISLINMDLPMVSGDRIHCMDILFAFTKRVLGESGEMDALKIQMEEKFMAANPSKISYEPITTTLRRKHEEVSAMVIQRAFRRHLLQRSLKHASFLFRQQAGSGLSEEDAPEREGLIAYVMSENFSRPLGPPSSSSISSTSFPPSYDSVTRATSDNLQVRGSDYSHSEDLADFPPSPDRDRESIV
Experimental: The effect of dronedarone on late INa has not been reported. Therefore we determined the effect of dronedarone on late INa induced by incubation of HEK293 cells expressing the human heart sodium channel gene Nav1.5 with the late INa enhancer tefluthrin. […] Thus, the combination of dronedarone and ranolazine may be anticipated to reduce late INa. A reduction of late INa in the heart has been associated with a reduction of atrial arrhythmias in patients and in animal models of atrial fibrillation.

[2] = test system: female rabbit isolated heart treated with E-4031; assay: Torsades de pointes in rabbit isolated heart treated with E-4031; conditions: E-4031 60 nM; dronedarone 10 μM
Experimental: Each rabbit was sedated using intramuscular injections of 6 mg/kg xylazine and 40 mg/kg ketamine and then anesthetized using a “cocktail” of ketamine (15 mg/kg)+xylazine (4 mg/kg) in 1.5 ml saline. The ketamine/xylazine cocktail was administered as an i.v. bolus via the marginal ear vein. After anesthesia was confirmed, the thorax was opened and the heart was quickly excised. The heart was placed in a modified Krebs-Henseleit (K-H) physiological saline solution at room temperature. […] CPP was measured (with a Biopac MP 150 pressure transducer, Goleta, Calif.) from a side port of the aortic catheter. To facilitate exit of fluid from the chamber of the left ventricle (LV), the leaflets of the mitral valve were trimmed with fine spring-handled scissors. The right atrial wall was partially removed.
Complete AV block was induced by thermo-ablation of the AV nodal area. […] A bipolar Teflon-coated electrode was placed on the right ventricular septum to pace the heart. Electrical stimuli 3 ms in width and 3-fold threshold amplitude were delivered to the pacing electrode at a frequency of 1 Hz throughout the experiments using a Grass S48 stimulator (W. Warwick, R.I.).
After initiation of ventricular pacing, a 30-40 min equilibration delay was allowed for heart rate (and CPP) to achieve a steady state, an essential experimental condition for recording a good quality monophasic action potential (MAP) recording.
Monophasic action potential (MAP) and ECG electrodes from Harvard Apparatus Inc. (Holliston, Mass.) were used to record heart rate (in beats per minute, or bpm), left ventricular MAPs and a bipolar ECG MAP electrodes were pressure contact Ag—AgCl cells attached to a circular holder with springs to keep the electrodes in contact with the LV epicardial surface. Two MAP electrodes were placed on the epicardial ventricular free wall below the level of the atrial-ventricular valves, one at the base to record a basal MAP and one at the apex to record an apical MAP. […] Signals were saved on a computer hard disk for subsequent analysis. Bipolar electrocardiograms (ECG) were generated using an isolated-heart ECG apparatus (Harvard Apparatus, Holliston, Mass.) attached to Biopac amplifier system.

SMILES | Increase in MAPD90 [1] | MAPD90 ([1]; from 177±10) | IC50 (hNav1.5) | Occurrences of torsades de pointes (TdP) (hearts) [2]
COc1ccccc1OCC(O)CN1CCN(CC(=O)Nc2c(C)cccc2C)CC1 (racemic) [Ranolazine, (±)-N-(2,6-dimethylphenyl)-4-[2-hydroxy-3-(2-methoxyphenoxy)-propyl]-1-piperazineacetamide] | 22±6% | 215 ± 6 ms | – | –
CCCCc1oc2ccc(NS(C)(=O)=O)cc2c1C(=O)c1ccc(OCCCN(CCCC)CCCC)cc1 [Dronedarone, N-(2-Butyl-3-(p-(3-(dibutylamino)propoxy)benzoyl)-5-benzofuranyl)methanesulfonamide] | – | – | 4 µM | 1/6
